Test results reported in US20220400686A1, “COMPOSITIONS AND METHODS FOR ON-DEMAND RELEASE OF ANTIMICROBIAL AGENTS” (priority 2019, published 2022).

Assays:
S. aureus = experiment: Specific and nonspecific cleavage in human serum with/without MN, read out by S. aureus culture in the supernatant; assay type: cell-based; conditions: PEGDMA-Oligo-Gentamicin hydrogel incubated 2 h in human serum with/without MN
Experimental: The data also support faster oligo cleavage by MN than by other nucleases present in the human serum.
Briefly, the PEGDMA-Oligo-Gentamicin hydrogel (50 μL, 8 mm in diameter, n=3) was immersed in 0.25 mL of human serum with or without MN (0.1 U/mL) and incubated at 37° C. for 2 h. The hydrogel was then removed while 0.25 mL of LB media containing 250 CFU S. aureus was added. The culture of S. aureus was incubated for 24 h at 37° C. with shaking.

[1] = molecular target: T1, micrococcal nuclease (MN) (Staphylococcus aureus, UniProt P00644); experiment: Enzymatic oligo digestion by micrococcal nuclease monitored by GPC; assay type: biochemical, S. aureus
T1 construct: purchased Worthington Biochemical Corporation; host or cells: S. aureus strain ATCC #27735
Text: The cleavage of the oligo probe (synthesized and purified by Integrated DNA Technologies) by MN (source: S. aureus strain ATCC #27735; Worthington Biochemical Corporation) was first validated prior to its conjugation with vancomycin or PEGDMA hydrogel.
The digestion of the methacrylated oligo by micrococcal nuclease (MN, 0.1-1.0 U/μL) was monitored by aqueous gel permeation chromatography (GPC) on a Varian ProStar HPLC system with two PL Aquagel-OH columns (Agilent Technologies) and a UV detector. The eluent was aqueous PBS (10 mM, pH 7.4) and the flow rate was 1.0 mL/min. Detection of the oligo probe and its fragments upon digestion was enabled by UV absorbance at 260 nm. Extinction coefficient of 2′-O-methyl-modified nucleotides was assumed to be the same as that of RNA. All measurements were performed in triplicates.

| Substance | total CFU count of S. aureus after 24-h culture in supernatant (S. aureus) | cleavage of the oligo by MN (fragments by GPC, UV 260 nm) ([1]; MN 0.1 U/μL, PBS pH 7.4 10 mM, physiological concentration of calcium ions) | cleavage of the oligo by MN ([1]; absence of calcium ions) |
| --- | --- | --- | --- |
| /5Carboxyl/*mC*mG*TT*mC*mG*/3Acryd/ [6 PS] | increased accordingly | – | – |
| /5Carboxyl/*mC*mGTTmC*mG*/3Acryd/ [4 PS] | increased accordingly | – | – |
| /5Carboxyl/mCmGTTmCmG/3Acryd/ [0 PS oligo] | least or no CFU count | two fragments | very little cleavage |
